Assays:
Assay in all cases: relative viability (nuclei count vs DMSO), 5 days (fraction); higher = more cells survive
[1] = compound: CC1=C(C(=O)N2C=CSC2=N1)CCN3CCC(=C(C4=CC=CC=C4)C5=CC=C(C=C5)F)CC3 + COc1cc2c(Oc3ccc(NC(=O)C4(C(=O)Nc5ccc(F)cc5)CC4)cc3F)ccnc2cc1OCCCN1CCOCC1 [Foretinib] (partner 0.25 µM)
Outline: (§1)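 Relative viability divides the nuclei count in treated wells by that in vehicle wells. Lung cancer cell lines were seeded in 1536-well plates, dosed by pin tool the next day, and fixed and stained after 5 days in one step with final 0.05% Triton X-100, 1% formaldehyde and 1 ug/ml Hoechst. Dosing was a single drug or a fixed anchor-drug dose plus five library-drug doses (not always all listed) in √10 steps, and values are medians of duplicate plates imaged at 4×.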

[2] = compound: CC1=C(C(=O)N2C=CSC2=N1)CCN3CCC(=C(C4=CC=CC=C4)C5=CC=C(C=C5)F)CC3 + CC(C)C[C@H](NC(=O)[C@H](Cc1ccccc1)NC(=O)c1cnccn1)B(O)O [Bortezomib] (partner 0.002 µM)
Outline: as §1

[3] = compound: CC1=C(C(=O)N2C=CSC2=N1)CCN3CCC(=C(C4=CC=CC=C4)C5=CC=C(C=C5)F)CC3 + CC(=O)c1c(C)c2cnc(Nc3ccc(N4CCNCC4)cn3)nc2n(C2CCCC2)c1=O [Palbociclib] (partner 0.5 µM)
Outline: as §1

[4] = compound: CC1=C(C(=O)N2C=CSC2=N1)CCN3CCC(=C(C4=CC=CC=C4)C5=CC=C(C=C5)F)CC3 + CS(=O)(=O)N1CCN(Cc2cc3nc(-c4cccc5[nH]ncc45)nc(N4CCOCC4)c3s2)CC1 [Pictilisib] (partner 1 µM)
Outline: as §1

Cell Line	relative viability ([1]; first compound 0.08 µM)	relative viability ([1]; first compound 0.253 µM)	relative viability ([1]; first compound 0.8 µM)	relative viability ([1]; first compound 2.53 µM)	relative viability ([1]; first compound 8 µM)	relative viability ([2]; first compound 0.253 µM)	relative viability ([2]; first compound 0.8 µM)	relative viability ([2]; first compound 2.53 µM)	relative viability ([2]; first compound 8 µM)	relative viability ([3]; first compound 0.08 µM)	relative viability ([3]; first compound 0.253 µM)	relative viability ([3]; first compound 0.8 µM)	relative viability ([3]; first compound 2.53 µM)	relative viability ([3]; first compound 8 µM)	relative viability ([4]; first compound 0.08 µM)	relative viability ([4]; first compound 0.253 µM)	relative viability ([4]; first compound 0.8 µM)	relative viability ([4]; first compound 2.53 µM)	relative viability ([4]; first compound 8 µM)	relative viability ([2]; first compound 0.08 µM)
LCLC-97TM1	1.01	1.01	1.02	0.92	0.958	0.484	0.249	0.408	0.597	0.255	0.217	0.284	0.283	0.205	0.208	0.297	0.217	0.182	0.167	
LCLC-103H	0.864	0.567	0.732	0.761	0.496	1.06	0.957	1.22	0.903	0.523	0.495	0.491	0.504	0.453	0.884	0.636	0.449	0.618	0.566	1.06
LOU-NH91	0.91	0.926	1.03	0.942	0.906	0.507	0.483	0.481	0.55	0.501	0.59	0.543	0.547	0.536	0.561	0.503	0.545	0.55	0.527	0.508
LU99A	0.793	0.771	0.832	0.822	0.802	1.11	1.05	1.14	0.904	0.383	0.367	0.416	0.387	0.447	0.377	0.316	0.342	0.389	0.311	1.23
LXF-289	1	1.01	1.01	1.01	0.879	1.13	1.05	0.97	0.933	0.595	0.666	0.604	0.599	0.469	0.824	0.953	0.804	0.674	0.724	1.08
NCI-H23	0.945	0.902	0.924	1.02	0.795	1.08	1.1	0.974	0.545	0.542	0.492	0.463	0.568	0.403	0.473	0.39	0.443	0.497	0.374	0.705
NCI-H322M	0.86	1.01	1.11	0.942	0.9	1.28	1.24	1.35	1.09	0.552	0.492	0.479	0.504	0.524	0.513	0.526	0.524	0.526	0.496	1.3
NCI-H441	1.07	0.968	1.05	0.976	0.84	0.447	0.464	0.468	0.215	0.219	0.196	0.2	0.208	0.234		0.519	0.464	0.563	0.366	
NCI-H460	0.782	0.796	1.16	1.13	0.232	0.799	1.3		0.184	0.187	0.151	0.203	0.0978	0.13	0.326	0.329	0.329	0.366	0.209	0.718
NCI-H520	0.778	0.846	0.924	0.873	0.641	0.485	0.57	0.999	0.523	0.211	0.235	0.238	0.223	0.19	0.315	0.334	0.348	0.33	0.292	0.615
NCI-H647	1.03	1.23	1.24	1.2	0.65	0.744	0.888	1.5	0.453	0.461	0.425	0.298	0.453	0.153	0.552	0.385	0.381	0.498	0.312	0.858
NCI-H650	0.994	1.11	1.13	1.17	1.06	0.696	0.877	0.817	0.599	0.322	0.348	0.322	0.32	0.334		0.763	0.786	0.99	0.71	
NCI-H661	0.871	1.02	0.983	1.05	0.814	0.776	0.88	0.871	0.697	0.402	0.393	0.391	0.417	0.429	0.404	0.382	0.338	0.352	0.361	0.764
NCI-H727	0.846	1.01	0.89	0.921	0.624	1.03	0.997	0.858	0.633	0.582	0.547	0.577	0.665	0.701	0.352	0.351	0.35	0.354	0.423	0.802
NCI-H838	0.827	1.03	1.04	1.12	0.9	0.581	0.654	0.824	0.696	0.207	0.213	0.268	0.207	0.191	0.439	0.489	0.466	0.58	0.444	0.591
NCI-H1355	1.09	0.94	1.08	0.893	0.661	1.25	1.25	1.21	0.921	0.368	0.404	0.378	0.407	0.455	0.445	0.504	0.534	0.472	0.385	1.28

Cell Line	relative viability ([1]; first compound 0.08 µM)	relative viability ([1]; first compound 0.253 µM)	relative viability ([1]; first compound 0.8 µM)	relative viability ([1]; first compound 2.53 µM)	relative viability ([1]; first compound 8 µM)	relative viability ([2]; first compound 0.253 µM)	relative viability ([2]; first compound 0.8 µM)	relative viability ([2]; first compound 2.53 µM)	relative viability ([2]; first compound 8 µM)	relative viability ([3]; first compound 0.08 µM)	relative viability ([3]; first compound 0.253 µM)	relative viability ([3]; first compound 0.8 µM)	relative viability ([3]; first compound 2.53 µM)	relative viability ([3]; first compound 8 µM)	relative viability ([4]; first compound 0.08 µM)	relative viability ([4]; first compound 0.253 µM)	relative viability ([4]; first compound 0.8 µM)	relative viability ([4]; first compound 2.53 µM)	relative viability ([4]; first compound 8 µM)	relative viability ([2]; first compound 0.08 µM)
NCI-H1437	1.23	1.32	1.31	1.34	0.841	0.398	0.476	0.484	0.351	0.297	0.317	0.325	0.323	0.257		0.446	0.388	0.406	0.485	
NCI-H1650	1.09	1.12	1.15	1.21	0.65	0.193	0.21	0.234	0.227	0.395	0.345	0.313	0.383	0.348	0.586	0.682	0.519	0.586	0.389	0.216
NCI-H1651	0.747	0.884	0.912	0.822	0.558	0.874	0.908	1.01	0.809	0.499	0.534	0.508	0.517	0.481	0.621	0.676	0.51	0.684	0.495	0.858
NCI-H1666	0.924	0.956	0.949	1.04	0.798	0.762	0.924	0.815	0.695	0.663	0.616	0.627	0.739	1.01	0.393	0.434	0.381	0.461	0.431	0.83
NCI-H1734	0.991	0.913	0.72	0.992	0.555	0.715	0.915	1.12	0.447	0.367	0.342	0.324	0.318	0.378	0.476	0.468	0.485	0.504	0.331	0.873
NCI-H1755	0.907	0.888	0.892	0.912	0.762	0.9	0.962	1.11	0.44	0.433	0.429	0.395	0.426	0.432	0.387	0.482	0.42	0.423	0.37	0.948
NCI-H1915	1.1	0.964	1.1	1.18	0.535	0.864	1.1	0.971	0.472	0.559	0.542	0.496	0.498	0.397	1.21	1.01	0.969	1.04	0.835	1.02
NCI-H1975	1.04	0.664	0.965	1.21	0.591	0.329	0.368	0.434	0.362	0.601	0.493	0.598	0.795	0.348	0.337	0.296	0.271	0.291	0.273	0.35
NCI-H1993	0.701	0.677	0.757	0.915	0.682		0.919	1.5	0.987	0.583	0.619	0.592	0.705	0.614	0.755		0.766	0.727	0.73	0.834
NCI-H2009	1.33	1.24	1.18	1.26	1.13	1.11	0.986	1.03	0.88	0.231	0.175	0.186	0.204	0.21	1.05	0.843	0.736	0.956	0.723	1.25
NCI-H2023	0.831	0.713	0.758	0.984	0.621	0.905	0.917	1.08	0.736	0.386	0.316	0.427	0.389	0.299	0.257	0.239	0.238	0.263	0.28	1.2
NCI-H2085	0.882	1.05	1.07	1.05	0.7	1.02	1.07	1.07	0.878	0.498	0.506	0.474	0.533	0.469	0.449	0.462	0.45	0.442	0.409	1.04
NCI-H2087	0.989	1.2	1.17	1.24	0.528	0.795	1.02	1.02	0.589	0.279	0.237	0.236	0.227	0.238	0.769	0.868	0.835	0.997	0.554	0.836
NCI-H2126	1.08	1.1	1.19	1.22	0.927	1.07	1.15	1.22	1.08	0.367	0.343	0.359	0.367	0.344	0.493	0.509	0.477	0.516	0.579	1.24
NCI-H2228	0.689	0.645	1.13	0.864	0.55	0.928	1.25	1.17	0.64	0.56	0.68	0.723	0.468	0.432	0.648	0.295	0.276	0.504	0.283	0.939
NCI-H2347		0.835	0.523	1.16	0.837	1.18	0.957	1.04	0.895	0.358	0.428	0.434	0.442	0.461	0.417	0.691	0.764	0.394	0.614	
